First: CCOC(=O)[C@H](CCc1ccccc1)N[C@@H](C)C(=O)N1CCC[C@H]1C(=O)O
Second: CC(=O)C(Cc1ccccc1)C(C)=O
The logP of the first is lower: 0.07 for the first, 1.89 for the second.

Going from `O=C1CCC(=O)N1c1ccccc1` to `NS(=O)(=O)c1ccccc1`, the logP rises from 0.06 to 0.31.

Going from `O=NN(CCCl)C(=O)NC1CC2CCC1C2` (centres undefined) to `CCCC1CCCc2ncc(C(=O)OC)c(=O)n21` (centres undefined), the logP falls from 2.98 to 1.14.

First: CCc1ccc(S(N)(=O)=O)cc1
Second: CC(=O)OCc1ccc([N+](=O)[O-])cc1
The logP of the first is lower: 1.31 for the first, 1.73 for the second.

First: Cc1ccco1
Second: Cc1ccsc1
The logP of the first is lower: 1.85 for the first, 2.34 for the second.

`O=c1[nH]ncc2ccccc12` and `Cn1nnc2ccccc2c1=O` are within 0.2 log units of each other in logP: 0.75 for the first, 0.84 for the second.

Going from `CCOC(=O)C(C)NC(=O)CCCCSc1ncnc2nc[nH]c12` (centres undefined) to `CCCCCOc1cc(N)ccc1C(=O)O`, the logP rises from 1.51 to 2.38.

Going from `CNC(=O)Oc1ccccc1C(C)C` to `CC(C)c1ccccc1O`, the logP rises from 2.31 to 2.88.

Going from `CN(C)C(N(C)C)=S(I)c1ccc(Br)cc1` (centres undefined) to `CN(C)C(N(C)C)=S(I)c1ccccc1F` (centres undefined), the logP falls from 0.06 to -0.55.

Going from `Nc1ccccc1S` to `Nc1ccccc1C(=O)O`, the logP falls from 1.43 to 1.21.

Compared with `CCCCOC(=O)c1cccnc1`, `CCCCOC(=O)c1ccccc1` is higher in logP: 2.27 for the first, 3.84 for the second.

Compared with `CCCC(=O)OCC(=O)C1(O)C(C)CC2C3CCC4=CC(=O)C=CC4(C)C3(F)C(O)CC21C` (centres undefined), `CCCOc1cccc(C=C(C(C)=O)C(=O)OCC)c1` is lower in logP: 3.55 for the first, 3.34 for the second.

Going from `CCO[Si](OCC)(OCC)c1ccccc1` to `C=C(C)c1ccccc1`, the logP rises from 2.99 to 3.48.

Compared with `CN(C)N=Nc1ccc(C=CC(=O)O)cc1`, `CN(C)C(=O)Nc1ccc(F)cc1` is lower in logP: 2.66 for the first, 1.13 for the second.

First: NC(=O)c1cccc(N)c1
Second: CC(=O)c1cccc(C#N)c1
The logP of the first is lower: -0.33 for the first, 1.16 for the second.

Compared with `CCNCCNCC`, `CCN(CC)CCNc1ccc(C)c(Cl)c1` is higher in logP: 0.21 for the first, 4.14 for the second.

Compared with `OC(c1ccccc1)(c1cncnc1)c1ccc(Cl)cc1Cl` (centres undefined), `Cc1nn(C)c(OCC(=O)c2ccccc2)c1C(=O)c1ccc(Cl)cc1Cl` is higher in logP: 2.56 for the first, 3.69 for the second.

Going from `CCCCCc1cn[nH]c1` to `NCCCCc1ccccn1`, the logP falls from 2.96 to 0.86.

Going from `ClCC#CCCl` to `OCC(Cl)Cl`, the logP falls from 2.01 to 0.37.

Compared with `Oc1ccc2ccccc2c1`, `CNC(=O)Oc1cccc2ccccc12` is lower in logP: 2.7 for the first, 2.36 for the second.

Compared with `CCOP(=S)(OCC)Oc1nc(Cl)n(C(C)C)n1`, `CNC(=O)Oc1cc(C)cc(C(C)C)c1` is lower in logP: 3.82 for the first, 3.1 for the second.

Going from `CN(C)C(=O)OCc1ccc(I)cc1` to `Cc1cccc(OC(=O)N(C)C)c1`, the logP falls from 3.32 to 2.05.

Going from `O=c1[nH]c(=O)n([C@H]2C[C@H](O)[C@@H](CO)O2)cc1C(F)(F)F` to `OCC(F)(F)C(F)(F)F`, the logP rises from -0.46 to 1.23.

Going from `CC(=O)N[C@@H](CC(C)C)C(=O)N[C@@H](CC(N)=O)C(N)=O` to `N[C@@H](CCC(=O)O)C(=O)O`, the logP falls from -1.3 to -3.69.

Going from `C1COCO1` to `C1COC1`, the logP rises from -0.37 to -0.14.

First: CNC(=O)N(C)c1ccccc1
Second: O=C(CO)NCc1ccccc1
The logP of the first is higher: 1.02 for the first, 0.55 for the second.

First: COc1ccc2[nH]ccc2c1
Second: COc1ccc(-c2cc3cnccc3[nH]2)c(OC)c1
The logP of the first is lower: 2.06 for the first, 3.5 for the second.

Going from `O=CNc1ccc(F)cc1` to `CC(=O)c1ccc(F)cc1`, the logP rises from 1.27 to 1.72.

Compared with `O=[N+]([O-])c1ccc2[nH]nnc2c1`, `O=[N+]([O-])c1cc[n+]([O-])cc1` is lower in logP: 1.95 for the first, -0.55 for the second.

Compared with `O=CO`, `CN(C)O` is lower in logP: -0.54 for the first, -1.15 for the second.

First: Cc1cc(Cl)ccc1N=CN(C)C
Second: CN(C)C(=O)Nc1cccc(F)c1
The logP of the first is higher: 2.89 for the first, 1.37 for the second.

Going from `COc1noc2c1CNCC2` to `O=C1CCCCN1`, the logP falls from -0.04 to -0.46.

Compared with `C1CN2CCC1CC2`, `O=C(NP(=O)(N1CC1)N1CC1)c1cccc(I)c1` is higher in logP: 1.38 for the first, 1.91 for the second.

Compared with `Cn1ccnc1`, `COCC(F)Cn1ccnc1[N+](=O)[O-]` (centres undefined) is higher in logP: -0.06 for the first, 0.18 for the second.

Compared with `O=[N+]([O-])c1ccccc1Nc1ccccc1`, `c1ccc2c(c1)nnc1ccccc12` is lower in logP: 3.66 for the first, 2.4 for the second.

Going from `N#Cc1cccc(F)c1` to `Clc1cccc(Cl)n1`, the logP rises from 1.47 to 2.15.

`O=P(O)(O)c1ccccc1` and `CS(=O)(=O)c1ccccc1` are within 0.2 log units of each other in logP: 0.54 for the first, 0.5 for the second.

Compared with `NCCCCCC(=O)O`, `O=C(O)COc1ccc2c(c1)CCCC2` is higher in logP: -2.95 for the first, 2.67 for the second.

First: CCC(C)NC(=O)C=C(SC)c1ccccc1 (centres undefined)
Second: COC(=O)[C@@H]1C2CCC(C[C@@H]1OC(=O)c1ccccc1)N2C (some centres undefined)
The logP of the first is higher: 3.03 for the first, 2.3 for the second.

First: O=NN1CC=CC1
Second: C=C(C)[C@H]1Cc2c(ccc3c2O[C@@H]2COc4cc(OC)c(OC)cc4[C@@H]2C3=O)O1
The logP of the first is lower: 0.26 for the first, 4.1 for the second.

Compared with `COc1ccc(Cl)cc1C(=O)NCCc1ccc(C(=O)O)cc1`, `O=C1NC(=O)C(c2ccccc2)(c2ccc(O)cc2)N1` (centres undefined) is lower in logP: 3.4 for the first, 1.7 for the second.

Compared with `CN(C)C(=O)Nc1ccc(C(C)(C)C)cc1`, `CN(C)C(=O)Oc1ccccc1[N+](=O)[O-]` is lower in logP: 3.1 for the first, 1.35 for the second.

From the OPERA property sets (Mansouri et al. 2018)
